Experimental data reported in ChEMBL document CHEMBL1135306, “Synthesis and evaluation of vancomycin and vancomycin aglycon analogues that bear modifications in the residue 3 asparagine” (2002).
In brackets after ≈: the same amount, converted by molar mass.

What was measured:
Assay type in all cases: functional
[1] = test system: Enterococcus faecalis; experiment: In vitro antibacterial activity against vancomycin resistant Enterococcus faecalis (VanA, BM4166)
[2] = test system: Enterococcus faecium; experiment: In vitro antibacterial activity against vancomycin resistant Enterococcus faecium
[3] = test system: Enterococcus faecium; experiment: In vitro antibacterial activity against Enterococcus faecium (ATCC 35667)
[4] = test system: Staphylococcus aureus; experiment: In vitro antibacterial activity against methicillin sensitive Staphylococcus aureus (ATCC 25923)
[5] = test system: Enterococcus faecalis; experiment: In vitro antibacterial activity against vancomycin resistant Enterococcus faecalis (VanB, ATCC 51299)

Row | SMILES | MIC [1] [µg/mL] | MIC [2] [µg/mL] | MIC [3] [µg/mL] | MIC [4] [µg/mL] | MIC [5] [µg/mL]
1 | CN[C@H](CC(C)C)C(=O)N[C@H]1C(=O)N[C@@H](CC#N)C(=O)N[C@H]2C(=O)N[C@H]3C(=O)N[C@H](C(=O)N[C@H](C(=O)OC)c4cc(OC)cc(OC)c4-c4cc3ccc4OC)[C@H](O)c3ccc(c(Cl)c3)Oc3cc2cc(c3OC)Oc2ccc(cc2Cl)[C@H]1O | 40 (≈ 33.4 µM) | 40 (≈ 33.4 µM) | 1.25 (≈ 1.05 µM) | 0.625 (≈ 0.523 µM) | 2.5 (≈ 2.09 µM)
2 | CN[C@H](CC(C)C)C(=O)N[C@H]1C(=O)N[C@@H](CC#N)C(=O)N[C@H]2C(=O)N[C@H]3C(=O)N[C@H](C(=O)N[C@H](C(=O)O)c4cc(O)cc(O)c4-c4cc3ccc4O)[C@H](O)c3ccc(c(Cl)c3)Oc3cc2cc(c3O[C@@H]2O[C@H](CO)[C@@H](O)[C@H](O)[C@H]2O[C@H]2C[C@](C)(N)[C@H](O)[C@H](C)O2)Oc2ccc(cc2Cl)[C@H]1O | 320 (≈ 224 µM) | 320 (≈ 224 µM) | 80 (≈ 55.9 µM) | 20 (≈ 14 µM) | 320 (≈ 224 µM)
3 | CN[C@H](CC(C)C)C(=O)N[C@H]1C(=O)N[C@@H](CC#N)C(=O)N[C@H]2C(=O)N[C@H]3C(=O)N[C@H](C(=O)N[C@H](C(=O)OC)c4cc(O)cc(O)c4-c4cc3ccc4O)[C@H](O)c3ccc(c(Cl)c3)Oc3cc2cc(c3O[C@@H]2O[C@H](CO)[C@@H](O)[C@H](O)[C@H]2O[C@H]2C[C@](C)(N)[C@H](O)[C@H](C)O2)Oc2ccc(cc2Cl)[C@H]1O | 640 (≈ 443 µM) | 320 (≈ 221 µM) | 10 (≈ 6.92 µM) | 2.5 (≈ 1.73 µM) | 160 (≈ 111 µM)
4 | CN[C@H](CC(C)C)C(=O)N[C@H]1C(=O)N[C@@H](CC(N)=O)C(=O)N[C@H]2C(=O)N[C@H]3C(=O)N[C@H](C(=O)N[C@H](C(=O)OC)c4cc(O)cc(O)c4-c4cc3ccc4O)[C@H](O)c3ccc(c(Cl)c3)Oc3cc2cc(c3O[C@@H]2O[C@H](CO)[C@@H](O)[C@H](O)[C@H]2O[C@H]2C[C@](C)(N)[C@H](O)[C@H](C)O2)Oc2ccc(cc2Cl)[C@H]1O | 640 (≈ 437 µM) | 640 (≈ 437 µM) | 2.5 (≈ 1.71 µM) | 2.5 (≈ 1.71 µM) | 80 (≈ 54.7 µM)
5 | CN[C@H](CC(C)C)C(=O)N[C@H]1C(=O)N[C@@H](CC#N)C(=O)N[C@H]2C(=O)N[C@H]3C(=O)N[C@H](C(=O)N[C@H](C(=O)O)c4cc(O)cc(O)c4-c4cc3ccc4O)[C@H](O)c3ccc(c(Cl)c3)Oc3cc2cc(c3O)Oc2ccc(cc2Cl)[C@H]1O | 640 (≈ 568 µM) | 640 (≈ 568 µM) | 20 (≈ 17.8 µM) | 10 (≈ 8.88 µM) | 320 (≈ 284 µM)
6 | CN[C@H](CC(C)C)C(=O)N[C@H]1C(=O)N[C@@H](CC#N)C(=O)N[C@H]2C(=O)N[C@H]3C(=O)N[C@H](C(=O)N[C@H](C(=O)OC)c4cc(O)cc(O)c4-c4cc3ccc4O)[C@H](O)c3ccc(c(Cl)c3)Oc3cc2cc(c3O)Oc2ccc(cc2Cl)[C@H]1O | 320 (≈ 281 µM) | 320 (≈ 281 µM) | 5 (≈ 4.39 µM) | 1.25 (≈ 1.1 µM) | 320 (≈ 281 µM)
7 | CN[C@H](CC(C)C)C(=O)N[C@H]1C(=O)N[C@@H](CC(N)=O)C(=O)N[C@H]2C(=O)N[C@H]3C(=O)N[C@H](C(=O)N[C@H](C(=O)O)c4cc(OC)cc(OC)c4-c4cc3ccc4OC)[C@H](O)c3ccc(c(Cl)c3)Oc3cc2cc(c3OC)Oc2ccc(cc2Cl)[C@H]1O | 40 (≈ 33.3 µM) | 40 (≈ 33.3 µM) | 2.5 (≈ 2.08 µM) | 0.625 (≈ 0.521 µM) | 20 (≈ 16.7 µM)
8 | CN[C@H](CC(C)C)C(=O)N[C@H]1C(=O)N[C@@H](CC(N)=O)C(=O)N[C@H]2C(=O)N[C@H]3C(=O)N[C@H](C(=O)N[C@H](C(=O)OC)c4cc(OC)cc(OC)c4-c4cc3ccc4OC)[C@H](O)c3ccc(c(Cl)c3)Oc3cc2cc(c3OC)Oc2ccc(cc2Cl)[C@H]1O | 40 (≈ 32.9 µM) | 40 (≈ 32.9 µM) | 1.25 (≈ 1.03 µM) | 0.625 (≈ 0.515 µM) | 10 (≈ 8.24 µM)
9 | CN[C@H](CC(C)C)C(=O)N[C@H]1C(=O)N[C@@H](CC#N)C(=O)N[C@H]2C(=O)N[C@H]3C(=O)N[C@H](C(=O)N[C@H](C(=O)O)c4cc(OC)cc(OC)c4-c4cc3ccc4OC)[C@H](O)c3ccc(c(Cl)c3)Oc3cc2cc(c3OC)Oc2ccc(cc2Cl)[C@H]1O | 160 (≈ 135 µM) | 160 (≈ 135 µM) | 2.5 (≈ 2.11 µM) | 0.31 (≈ 0.262 µM) | 20 (≈ 16.9 µM)
10 | CN[C@H](CC(C)C)C(=O)N[C@H]1C(=O)N[C@@H](CC(N)=O)C(=O)N[C@H]2C(=O)N[C@H]3C(=O)N[C@H](C(=O)N[C@H](C(=O)OC)c4cc(O)cc(O)c4-c4cc3ccc4O)[C@H](O)c3ccc(c(Cl)c3)Oc3cc2cc(c3O)Oc2ccc(cc2Cl)[C@H]1O | 640 (≈ 553 µM) | 320 (≈ 276 µM) | 10 (≈ 8.64 µM) | 5 (≈ 4.32 µM) | 320 (≈ 276 µM)
11 | CN[C@H](CC(C)C)C(=O)N[C@H]1C(=O)N[C@@H](CC(N)=O)C(=O)N[C@H]2C(=O)N[C@H]3C(=O)N[C@H](C(=O)N[C@H](C(=O)O)c4cc(O)cc(O)c4-c4cc3ccc4O)[C@H](O)c3ccc(c(Cl)c3)Oc3cc2cc(c3O)Oc2ccc(cc2Cl)[C@H]1O [VANCOMYCIN AGLYCON] | 640 (≈ 559 µM) | 160 (≈ 140 µM) | 2.5 (≈ 2.19 µM) | 0.625 (≈ 0.546 µM) | 80 (≈ 69.9 µM)
12 | CN[C@H](CC(C)C)C(=O)N[C@H]1C(=O)N[C@@H](CC(N)=O)C(=O)N[C@H]2C(=O)N[C@H]3C(=O)N[C@H](C(=O)N[C@H](C(=O)O)c4cc(O)cc(O)c4-c4cc3ccc4O)[C@H](O)c3ccc(c(Cl)c3)Oc3cc2cc(c3O[C@@H]2O[C@H](CO)[C@@H](O)[C@H](O)[C@H]2O[C@H]2C[C@](C)(N)[C@H](O)[C@H](C)O2)Oc2ccc(cc2Cl)[C@H]1O [VANCOMYCIN] | 2000 (≈ 1380 µM) | 500 (≈ 345 µM) | 2.5 (≈ 1.73 µM) | 1.25 (≈ 0.863 µM) | 125 (≈ 86.3 µM)
